# Laboratory results: patent US11214594B2, “Antimicrobial peptide having synergistic antibacterial effect with antibiotics on multidrug resistant bacteria, and use thereof” (priority 2016, dated 2022)
# Like-named read-outs stand apart in the source and are kept apart here. Where a SMILES comes first, the peptide text is derived from it. [ ]: non-standard residue; d: D form.
# Assays:
# E. coli [1] = assay type: cell-based, Escherichia coli; details: E. coli
# Outline: (§1)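 Broth microdilution in MH medium; strains were diluted to 2×10^6 CFU per ml before plating. Peptide was serially diluted stepwise at 2:1 starting from its MIC, and MH-diluted antibiotic was then added to determine MIC. The reversed arrangement was also tested.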
# MDREC 1229 [2] = assay type: cell-based, Escherichia coli
# Outline: as §1
# MRSA 3126 = assay type: cell-based, Staphylococcus aureus; details: 3126
# Outline: (§2)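 Broth microdilution in MH medium: bacterial strains diluted to 2×10^6 CFU were mixed with equal volumes of peptide serially diluted twofold in MH medium.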
# MRSA 3114 = assay type: cell-based, Staphylococcus aureus; details: 3114
# Outline: as §2
# E. coli [3] = test: MIC of antibiotic during combined treatment with antimicrobial peptide; assay type: cell-based, Escherichia coli; details: for Antibiotic MIC, Erythromycin / Antibiotic MIC, Linezolid / Antibiotic MIC, Vancomycin: E. coli
# Outline: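 Using MH broth, we determined combination MICs by titrating the antibiotic into wells and then repeating under the reverse dilution scheme.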
# MDRAB 12036 = assay type: cell-based, Acinetobacter baumannii
# Outline: as §2
# E. coli [4] = test: microbe, parasite or virus in culture; assay type: cell-based, Escherichia coli; details: 16 h
# Outline: as §2
# MDREC 1229 [5] = test: microbe, parasite or virus in culture; assay type: cell-based, Escherichia coli
# Outline: as §2
# P. aeruginosa = test: microbe, parasite or virus in culture; assay type: cell-based, Pseudomonas aeruginosa
# Outline: as §2
# MDRAB 12035 = test: MIC of antibiotic during combined treatment with antimicrobial peptide; assay type: cell-based, Acinetobacter baumannii
# Outline: as §1
# [6] = peptide treatment concentration 1 μg/ml
compound,measurement,setting,value
"CC[C@H](C)[C@H](NC(=O)[C@H](CCCCN)NC(=O)[C@H](Cc1c[nH]c2ccccc12)NC(=O)[C@@H](N)CCCNC(=N)N)C(=O)N[C@@H](Cc1ccccc1)C(=O)N[C@@H](CCCCN)C(=O)N[C@@H](CCCCN)C(=O)N[C@H](C(=O)N[C@H](CC(C)C)C(=O)N[C@@H](CCCCN)C(=O)N[C@@H](CC(C)C)C(=O)N[C@@H](CC(C)C)C(=O)N[C@@H](Cc1c[nH]cn1)C(=O)N[C@@H](CCC(=O)O)C(=O)N[C@@H](Cc1ccccc1)C(=O)N[C@@H](CCCCN)C(=O)N[C@@H](CCCCN)C(=O)N[C@@H](Cc1ccccc1)C(N)=O)[C@@H](C)CC [PapMA-23, RWK IFK KIl KLL HEF KKF-NH2] (H-RWKIFKKI[dL]KLLHEFKKF-NH2; N-terminus assumed)",Peptide MIC,E. coli [1]; with Erythromycin […] (Conc./MIC 1),0 µg/mL
same,Peptide MIC,E. coli [1]; with Linezolid […] (Conc./MIC 1),0 µg/mL
same,Peptide MIC,E. coli [1]; with Vancomycin 1024 μg/ml (Conc./MIC 1),0 µg/mL
same,Peptide MIC during treatment with antibiotic,MDREC 1229 [2]; erythromycin 32 μg/ml (Conc./MIC 1/8),4 µg/mL
same,Peptide MIC during treatment with antibiotic,MDREC 1229 [2]; erythromycin 64 μg/ml (Conc./MIC 1/4),2 µg/mL
same,Peptide MIC during treatment with antibiotic,MDREC 1229 [2]; erythromycin […] (Conc./MIC 1),0 µg/mL
same,Peptide MIC during treatment with antibiotic,MDREC 1229 [2]; erythromycin […] (Conc./MIC 1/2),1 µg/mL
same,Peptide MIC during treatment with antibiotic,MDREC 1229 [2]; linezolid 64 μg/ml (Conc./MIC 1/8),4 µg/mL
same,Peptide MIC during treatment with antibiotic,MDREC 1229 [2]; linezolid 512 μg/ml (Conc./MIC 1),0 µg/mL
same,Peptide MIC during treatment with antibiotic,MDREC 1229 [2]; linezolid […] (Conc./MIC 1/2),1 µg/mL
same,Peptide MIC during treatment with antibiotic,MDREC 1229 [2]; linezolid […] (Conc./MIC 1/4),2 µg/mL
same,Peptide MIC during treatment with antibiotic,MDREC 1229 [2]; vancomycin 512 μg/ml (Conc./MIC 1/2),2 µg/mL
same,Peptide MIC during treatment with antibiotic,MDREC 1229 [2]; vancomycin 1024 μg/ml (Conc./MIC 1),1 µg/mL
same,Peptide MIC during treatment with antibiotic,MDREC 1229 [2]; vancomycin […] (Conc./MIC 1/4),4 µg/mL
same,Peptide MIC during treatment with antibiotic,MDREC 1229 [2]; vancomycin […] (Conc./MIC 1/8),8 µg/mL
same,Minimal inhibitory concentration MIC,MRSA 3126,>128 µg/mL
same,Minimal inhibitory concentration MIC,MRSA 3114,>128 µg/mL
same,Synergistic effect of antibacterial activity with existing antibiotics compared with PapMA-1,E. coli [3]; E. coli and MDREC1229,level similar to that of the PapMA-1 peptide
same,"Antibiotic MIC, Erythromycin",E. coli [3]; erythromycin combined with peptide at 1 μg/ml,128 µg/mL
same,"Antibiotic MIC, Erythromycin",E. coli [3]; erythromycin combined with peptide at 2 μg/ml,64 µg/mL
same,"Antibiotic MIC, Erythromycin",E. coli [3]; erythromycin combined with peptide at 4 μg/ml,16 µg/mL
same,"Antibiotic MIC, Erythromycin",E. coli [3]; erythromycin combined with peptide at 6 μg/ml,4 µg/mL
same,"Antibiotic MIC, Erythromycin",E. coli [3]; erythromycin combined with peptide at 8 μg/ml,2 µg/mL
same,"Antibiotic MIC, Erythromycin",E. coli [3]; erythromycin combined with peptide at 16 μg/ml,0.5 µg/mL
same,"Antibiotic MIC, Erythromycin",E. coli [3]; erythromycin combined with peptide at 32 μg/ml,0 µg/mL
same,"Antibiotic MIC, Erythromycin",E. coli [3]; erythromycin combined with peptide at 64 μg/ml,0 µg/mL
same,"Antibiotic MIC, Linezolid",E. coli [3]; linezolid combined with peptide at 1 μg/ml,>128 µg/mL
same,"Antibiotic MIC, Linezolid",E. coli [3]; linezolid combined with peptide at 2 μg/ml,128 µg/mL
same,"Antibiotic MIC, Linezolid",E. coli [3]; linezolid combined with peptide at 4 μg/ml,64 µg/mL
same,"Antibiotic MIC, Linezolid",E. coli [3]; linezolid combined with peptide at 6 μg/ml,32 µg/mL
same,"Antibiotic MIC, Linezolid",E. coli [3]; linezolid combined with peptide at 8 μg/ml,16 µg/mL
same,"Antibiotic MIC, Linezolid",E. coli [3]; linezolid combined with peptide at 16 μg/ml,16 µg/mL
same,"Antibiotic MIC, Linezolid",E. coli [3]; linezolid combined with peptide at 32 μg/ml,0 µg/mL
same,"Antibiotic MIC, Linezolid",E. coli [3]; linezolid combined with peptide at 64 μg/ml,0 µg/mL
same,"Antibiotic MIC, Vancomycin",E. coli [3]; vancomycin combined with peptide at 1 μg/ml,>128 µg/mL
same,"Antibiotic MIC, Vancomycin",E. coli [3]; vancomycin combined with peptide at 2 μg/ml,>128 µg/mL
same,"Antibiotic MIC, Vancomycin",E. coli [3]; vancomycin combined with peptide at 4 μg/ml,>128 µg/mL
same,"Antibiotic MIC, Vancomycin",E. coli [3]; vancomycin combined with peptide at 6 μg/ml,64 µg/mL
same,"Antibiotic MIC, Vancomycin",E. coli [3]; vancomycin combined with peptide at 8 μg/ml,16 µg/mL
same,"Antibiotic MIC, Vancomycin",E. coli [3]; vancomycin combined with peptide at 16 μg/ml,8 µg/mL
same,"Antibiotic MIC, Vancomycin",E. coli [3]; vancomycin combined with peptide at 32 μg/ml,0 µg/mL
same,"Antibiotic MIC, Vancomycin",E. coli [3]; vancomycin combined with peptide at 64 μg/ml,0 µg/mL
same,Minimal inhibitory concentration MIC,MDRAB 12036,32 µg/mL
same,Minimal inhibitory concentration MIC,E. coli [4],32 µg/mL
same,Minimal inhibitory concentration MIC,MDREC 1229 [5],32 µg/mL
same,"Peptide MIC, peptide alone",MDREC 1229 [5],32 µg/mL
same,Minimal inhibitory concentration MIC,P. aeruginosa,64 µg/mL
same,Erythromycin MIC during combined treatment with peptide,MDRAB 12035; [6],32 µg/mL
same,Linezolid MIC during combined treatment with peptide,MDRAB 12035; [6],>128 µg/mL
same,Vancomycin MIC during combined treatment with peptide,MDRAB 12035; [6],>128 µg/mL
same,Erythromycin MIC during combined treatment with peptide,MDRAB 12035; peptide treatment concentration 2 μg/ml,32 µg/mL
